Legend:
Experiment in all cases: relative viability (nuclei count vs DMSO), 5 days (fraction); higher = more cells survive
[1] = compound: CCN(CCO)CCCC(C)Nc1ccnc2cc(Cl)ccc12 [Hydroxychloroquine] + Cc1cc(Nc2cc(N3CCN(C)CC3)nc(Sc3ccc(NC(=O)C4CC4)cc3)n2)n[nH]1 [Tozasertib] (partner 0.1 µM)
Method in brief: (§1)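 Five library-drug doses in √10 steps were combined with a fixed anchor-drug dose, or a single drug was given alone, by pin tool to lung cancer cell lines in 1536-well plates the day after seeding. Nuclei were stained and counted after 5 days. Relative viability is the nuclei count in treated wells over that in vehicle wells, taken as the median of duplicate plates.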

[2] = compound: CCN(CCO)CCCC(C)Nc1ccnc2cc(Cl)ccc12 [Hydroxychloroquine] + NC(=O)Nc1cc(-c2cccc(F)c2)sc1C(=O)N[C@H]1CCCNC1 [AZD7762] (partner 0.2 µM)
Method in brief: as §1

[3] = compound: CCN(CCO)CCCC(C)Nc1ccnc2cc(Cl)ccc12 [Hydroxychloroquine] + CC(=O)Nc1cccc(-n2c(=O)n(C3CC3)c(=O)c3c(Nc4ccc(I)cc4F)n(C)c(=O)c(C)c32)c1 [Trametinib] (partner 0.02 µM)
Method in brief: as §1

Hydroxychloroquine = compound: CCN(CCO)CCCC(C)Nc1ccnc2cc(Cl)ccc12 [Hydroxychloroquine]
Method in brief: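 Following overnight incubation at 37 °C, lung cancer cell lines in 1536-well plates were pinned with five library-drug doses (not always all listed) in √10 steps on vehicle-anchored plates. The cells then spent 5 days without medium change before a combined fix, permeabilisation and Hoechst stain, 4× imaging and MetaXpress nuclear counts. Viability is the treated-to-vehicle ratio of nuclei, taken as the median across plates. Only plates with control CV below 25% and at least one doubling passed.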

Cell Line	relative viability ([1]; first compound 0.5 µM)	relative viability ([1]; first compound 1.581 µM)	relative viability ([1]; first compound 5 µM)	relative viability ([1]; first compound 15.81 µM)	relative viability ([1]; first compound 50 µM)	relative viability ([2]; first compound 0.5 µM)	relative viability ([2]; first compound 1.581 µM)	relative viability ([2]; first compound 5 µM)	relative viability ([2]; first compound 15.81 µM)	relative viability ([2]; first compound 50 µM)	relative viability ([3]; first compound 0.5 µM)	relative viability ([3]; first compound 1.581 µM)	relative viability ([3]; first compound 5 µM)	relative viability ([3]; first compound 15.81 µM)	relative viability ([3]; first compound 50 µM)	relative viability (Hydroxychloroquine; 0.5 µM)	relative viability (Hydroxychloroquine; 1.581 µM)	relative viability (Hydroxychloroquine; 5 µM)	relative viability (Hydroxychloroquine; 15.81 µM)	relative viability (Hydroxychloroquine; 50 µM)
NCI-H1993	0.514	0.648	0.571	0.569	0.592	0.699	0.597	0.927	0.79	0.817	0.525	0.589	0.597	0.551	0.469	0.974	0.842	0.939	0.883	1.02
PC-14	0.58	0.537	0.54	0.544	0.55	0.3	0.459	0.31	0.302	0.406	0.708	0.846	0.667	0.798	0.687	1.03	0.961	0.956	1.05	1.01
NCI-H1437	0.395	0.42	0.426	0.438	0.427	1.13	1.15	1.08	1.14	1.14	0.543	0.579	0.515	0.459	0.544	0.994	1	0.926	0.997	1.04
NCI-H2170	0.721	0.751	0.67	0.813	0.728	0.925	0.918	0.867	0.882	1.09	0.867	0.852	0.933	1.05	0.896	0.969	1.15	0.992	0.995	1.15
NCI-H1648	–	0.498	0.684	0.486	0.412	0.657	0.758	0.575	0.531	0.562	0.499	0.434	0.437	0.57	0.414	0.817	1.09	0.775	0.992	0.825
LCLC-103H	0.433	0.404	0.541	0.507	0.56	0.855	0.672	0.76	0.743	0.827	0.684	0.642	0.678	0.719	0.695	1.01	0.932	0.998	1	1.01
NCI-H460	0.515	0.4	0.377	0.413	0.516	0.727	0.645	0.63	0.749	0.615	0.203	0.11	0.119	0.187	0.13	0.973	1	1.01	1.03	1.11
BEN	0.606	0.465	0.551	0.501	0.622	0.795	0.652	0.767	0.776	0.759	0.951	0.881	0.954	1.12	1.03	1.04	0.894	0.977	1.06	1.07
LC-2-ad	0.447	0.478	0.415	0.463	0.455	0.898	0.822	0.842	0.832	0.85	0.925	0.98	0.941	0.865	0.924	1	0.982	0.996	0.998	1.02
SW 900	0.517	0.531	0.548	0.74	0.572	0.678	0.681	0.679	0.748	0.594	0.761	1.01	0.779	0.879	0.806	0.879	0.729	0.837	0.717	0.889
NCI-H1915	0.425	0.411	0.428	0.464	0.439	0.65	0.742	0.731	0.711	0.707	0.328	0.251	0.325	0.311	0.306	0.961	1.01	0.981	1.01	1.06
NCI-H647	0.263	0.357	0.278	0.346	0.272	0.542	0.455	0.423	0.252	0.373	0.474	0.494	0.438	0.497	0.519	1	1.07	0.894	0.816	0.975
NCI-H2126	0.821	0.77	0.836	0.887	0.949	1.07	1.12	0.984	1.08	1.03	0.5	0.516	0.603	0.544	0.55	1.02	0.967	0.974	0.992	1.06
LXF-289	0.172	0.17	0.2	0.176	0.193	1.01	1.08	1.05	1.06	1.17	0.659	0.689	0.674	0.72	0.759	1.06	1.01	1.03	1.02	1.07
HCC-44	1.18	0.937	0.895	0.934	1.3	1.07	1.04	1.08	1.06	0.975	1.07	1.04	1.14	1.08	1.1	1.04	0.996	1.01	1.01	1.04
PC-3 [JPC-3]	0.859	0.959	0.973	0.948	0.901	0.905	0.882	0.652	0.727	0.774	0.694	0.69	0.668	0.723	0.681	1.01	1.08	0.957	1.06	1.02

Cell Line	relative viability ([1]; first compound 0.5 µM)	relative viability ([1]; first compound 1.581 µM)	relative viability ([1]; first compound 5 µM)	relative viability ([1]; first compound 15.81 µM)	relative viability ([1]; first compound 50 µM)	relative viability ([2]; first compound 0.5 µM)	relative viability ([2]; first compound 1.581 µM)	relative viability ([2]; first compound 5 µM)	relative viability ([2]; first compound 15.81 µM)	relative viability ([2]; first compound 50 µM)	relative viability ([3]; first compound 0.5 µM)	relative viability ([3]; first compound 1.581 µM)	relative viability ([3]; first compound 5 µM)	relative viability ([3]; first compound 15.81 µM)	relative viability ([3]; first compound 50 µM)	relative viability (Hydroxychloroquine; 0.5 µM)	relative viability (Hydroxychloroquine; 1.581 µM)	relative viability (Hydroxychloroquine; 5 µM)	relative viability (Hydroxychloroquine; 15.81 µM)	relative viability (Hydroxychloroquine; 50 µM)
HOP-62	0.365	0.316	0.38	0.43	0.413	0.448	0.968	0.661	0.626	0.732	0.37	0.387	0.386	0.397	0.341	1.04	1.01	1.05	1.08	1.08
NCI-H358	0.097	0.096	0.115	0.108	0.0849	0.498	0.566	0.534	0.436	0.442	0.128	0.122	0.132	0.131	0.127	0.851	0.884	0.88	0.888	0.877
NCI-H1666	0.612	0.557	0.658	0.636	0.552	0.891	0.791	0.806	0.774	0.72	0.789	0.786	0.848	0.812	0.794	0.986	0.944	1.01	0.966	0.952
NCI-H1355	0.616	0.493	0.513	0.557	0.508	0.747	0.795	0.679	0.72	0.81	0.374	0.413	0.435	0.376	0.388	1.04	0.956	1	0.983	1.05
HCC-827	0.442	0.442	0.513	0.467	0.456	0.207	0.227	0.237	0.264	0.22	0.506	0.479	0.488	0.563	0.531	1.03	1.02	1.04	1.02	1.06
HARA	0.221	0.0946	0.0888	0.11	0.099	0.263	0.373	0.405	0.219	0.376	0.725	0.975	0.88	0.704	0.613	1.23	0.938	0.876	1	0.903
HCC-366	0.109	0.132	0.138	0.0907	0.144	0.228	0.381	0.289	0.235	0.384	0.334	0.323	0.355	0.282	0.458	1.01	0.981	0.986	1.06	1.03
NCI-H322M	0.506	0.478	0.484	0.547	0.49	0.681	0.433	0.447	0.487	0.482	0.497	0.6	0.511	0.511	0.537	0.955	0.933	0.957	0.935	0.983
NCI-H2347	0.553	0.455	0.664	0.402	0.469	0.657	0.692	0.806	0.701	0.882	0.293	0.248	0.272	0.281	0.325	1.1	0.935	1.04	0.965	1.03
NCI-H1975	0.84	0.695	0.856	0.858	0.847	0.679	0.659	0.752	0.698	0.754	0.36	0.322	0.341	0.38	0.321	0.973	0.977	0.91	1	1.06
NCI-H441	0.759	0.578	0.61	0.879	0.591	1.16	1.47	1.25	1.5	1.11	0.467	0.39	0.386	0.349	0.462	1.05	0.926	1.33	1.13	1.03
NCI-H522	0.524	0.619	0.607	0.632	0.525	0.712	–	0.674	0.974	0.907	0.674	–	0.915	0.65	0.805	1.01	0.844	0.95	0.836	0.954
A-427	0.207	0.172	0.2	0.207	0.232	0.727	0.802	0.769	0.696	0.671	0.752	0.639	0.697	0.715	0.675	0.995	0.945	0.964	1	0.968
LCLC-97TM1	0.282	0.254	0.229	0.509	0.26	0.373	0.499	0.245	0.119	0.363	0.208	0.185	0.196	0.23	0.16	1.14	1.06	1.03	0.944	0.946
HCC-15	0.392	0.399	0.412	0.321	0.441	1.29	1.15	1.11	1.35	1.49	0.4	0.387	0.351	0.38	0.311	1.08	0.956	1.04	1.06	1.04
NCI-H650	0.736	0.692	0.681	0.763	0.708	1.07	1.05	0.924	0.956	0.986	0.877	0.876	0.965	1.03	0.969	1	0.896	0.741	1.04	0.955
